# Where a name gives a salt, the structure may show the parent alone.
# Target: human 5-HT6 receptor (Homo sapiens (Human), UniProt P50406)
# Assay: 5-HT6 radioligand binding assay (SPA format, [N-methyl-3H]-LSD)
# Conditions: human 5-HT6 receptor membranes, 10 nM [N-methyl-3H]-LSD; Ki by Cheng-Prusoff; hydrochloride; read-out: human 5HT6 Ki
# Description: The relative affinities of the various compounds for the 5-HT6 receptor were measured in a radioligand binding assay, using a scintillation proximity assay (SPA) format.
# For binding analysis vs. the human receptor, samples were incubated in 50 mM Tris-HCl, pH 7.5, 5 mM MgCl2, 1 mM EDTA (4% DMSO final) with 10 nM [N-methyl-^3H]-LSD (Perkin Elmer), 2.5 ng of human 5-HT6 receptor membranes (Millipore) and 50 μg SPA beads (PVT-PEI-WGA, GE Healthcare) per well in a final volume of 0.2 mL. […] Binding reactions were performed in PicoPlate96 microtiter plates (Perkin Elmer) by consecutively adding 50 μL of each competing compound or buffer, SPA beads, radioligand and 5-HT6 receptor membranes. After an overnight incubation at room temperature on a Nutator mixer, plates were centrifuged for 15 min at 1,500 rpm, followed by incubation in the dark for 10 min. […] Total binding control contained compound dilution buffer only; nonspecific binding is determined in the presence of 100 μM 5-hydroxytryptamine. Specific binding was determined by subtracting nonspecific binding from total binding.
# All experiments were performed in duplicate using ten concentrations of competing ligand, with clozapine included as a control in every run. IC50 values were determined from specific binding data using XLfit4.1 curve fitting software from IDBS Ltd. The inhibition constant (Ki) was calculated using the Cheng-Prusoff equation: (Ki=IC50/(1+(L/KD)), where L=concentration of radioligand in the assay, and KD=affinity of the radioligand for the receptor.
# human 5-HT6 receptor, sequence (P50406 whole entry): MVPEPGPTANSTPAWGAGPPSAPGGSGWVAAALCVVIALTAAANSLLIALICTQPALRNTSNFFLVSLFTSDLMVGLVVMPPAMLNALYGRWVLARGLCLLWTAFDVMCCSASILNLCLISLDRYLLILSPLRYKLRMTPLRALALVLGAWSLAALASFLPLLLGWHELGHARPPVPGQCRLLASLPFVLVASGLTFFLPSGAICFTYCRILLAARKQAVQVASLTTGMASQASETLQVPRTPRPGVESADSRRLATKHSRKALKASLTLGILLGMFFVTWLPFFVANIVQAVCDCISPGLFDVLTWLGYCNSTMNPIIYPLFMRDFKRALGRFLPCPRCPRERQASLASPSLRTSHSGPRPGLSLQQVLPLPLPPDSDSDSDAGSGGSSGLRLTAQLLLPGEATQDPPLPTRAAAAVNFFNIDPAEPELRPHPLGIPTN
row,SMILES,Ki [nM]
1,"CC1Cc2oc3c(Cl)cc(S(=O)(=O)c4ccccc4)cc3c2CN1 (single isomer, unassigned; (+)) [Example 83b, (+) 6-chloro-3-methyl-8-(phenylsulfonyl)-1,2,3,4-tetrahydrobenzofuro[3,2-c]pyridine hydrochloride]",16

# Same assay, conditions: human 5-HT6 receptor membranes, 10 nM [N-methyl-3H]-LSD; Ki by Cheng-Prusoff; read-out: human 5HT6 Ki
row,SMILES,Ki [nM]
1,Cn1ccc(-c2cc(S(=O)(=O)c3ccccc3)cc3c4c(oc23)CCNC4)n1 [Example 227],60
2,O=S(=O)(c1cccc(C(F)(F)F)c1)c1cc(F)c2oc3c(c2c1)CNCC3 [Example 206],5.9
3,CC(C)(O)c1ccccc1S(=O)(=O)c1cc(Cl)c2oc3c(c2c1)CNCC3 [Example 142],25
4,Cc1cc(S(=O)(=O)c2ccccc2F)cc2c3c(oc12)CCNC3 [Example 194],0.39
5,O=S(=O)(c1cccnc1)c1cc(Cl)c2oc3c(c2c1)CNCC3 [Example 120],26
6,COc1cc(S(=O)(=O)c2ccc(F)c(F)c2)cc2c3c(oc12)CCNC3 [Example 161],0.32
7,"O=S(=O)(c1cccc(C2CCOC2)c1)c1cc(Cl)c2oc3c(c2c1)CNCC3 (centres unmarked) [Example 71, 6-chloro-8-(3-(tetrahydrofuran-3-yl)phenylsulfonyl)-1,2,3,4-tetrahydrobenzofuro[3,2-c]pyridine hydrochloride]",2
8,CCN1CCc2oc3c(Cl)cc(S(=O)(=O)c4ccccc4)cc3c2C1 [Example 117],1.2
9,O=S(=O)(c1cccc(C(O)C(F)(F)F)c1)c1cc(Cl)c2oc3c(c2c1)CNCC3 (centres unmarked) [Example 132],3.3
10,"CNC(=O)c1cc(S(=O)(=O)c2ccccc2)cc2c3c(oc12)CCNC3 [Example 78, N-methyl-8-(phenylsulfonyl)-1,2,3,4-tetrahydrobenzofuro[3,2-c]pyridine-6-carboxamide hydrochloride]",607
11,O=S(=O)(c1ccccc1)c1cc(Cn2ccnc2)c2oc3c(c2c1)CNCC3 [Example 229],64
12,CC(=O)N1CCc2oc3c(Cl)cc(S(=O)(=O)c4cn(C)c5ccccc45)cc3c2C1 [Example 155],167
13,COc1cc(S(=O)(=O)c2csc3ccccc23)cc2c3c(oc12)CCNC3 [Example 185],0.1
14,COc1cc(S(=O)(=O)c2ccc3sccc3c2)cc2c3c(oc12)CCNC3 [Example 184],0.16
15,COc1cc(S(=O)(=O)c2ccc([C@H](C)O)cc2)cc2c3c(oc12)CCNC3 [Example 171],8.6
16,O=S(=O)(c1cc(Cl)c2oc3c(c2c1)CNCC3)c1ccccc1C(F)(F)F [Example 153],6.1
17,C=C(C)c1cccc(S(=O)(=O)c2cc(Cl)c3oc4c(c3c2)CNCC4)c1 [Example 157],0.66
18,CC(C)(O)COc1cc(S(=O)(=O)c2ccccc2)cc2c3c(oc12)CCNC3 [Example 218],507
19,N#Cc1cc(S(=O)(=O)c2ccc(Cl)cc2)cc2c3c(oc12)CCNC3 [Example 212],8.8
20,O=S(=O)(c1ccc(-n2cccn2)cc1)c1cc(Cl)c2oc3c(c2c1)CNCC3 [Example 104],26
21,O=S(=O)(c1ccc2sccc2c1)c1cc(Cl)c2oc3c(c2c1)CNCC3 [Example 134],0.55
22,COc1cc([S+]([O-])c2ccccc2)cc2c3c(oc12)CCNC3 (centres unmarked) [Example 234],7.4

row,SMILES,Ki [nM]
1,CC(O)c1cccc(S(=O)(=O)c2cc(Cl)c3oc4c(c3c2)CNCC4)c1 (centres unmarked) [Example 136],3
2,C[C@H](O)c1ccc(S(=O)(=O)c2cc(Cl)c3oc4c(c3c2)CNCC4)cc1 [Example 140],16
3,"O=S(=O)(c1ccccc1)c1cc(-c2cn[nH]c2)c2oc3c(c2c1)CNCC3 [Example 77, 8-(phenylsulfonyl)-6-(1H-pyrazol-4-yl)-1,2,3,4-tetrahydrobenzofuro[3,2-c]pyridine hydrochloride]",28
4,O=S(=O)(c1ccccc1)c1cc(Cl)c2oc3c(c2c1)CN(CCC(F)(F)F)CC3 [Example 114],19
5,N#Cc1cc(S(=O)(=O)c2cccc(Cl)c2)cc2c3c(oc12)CCNC3 [Example 213],1.9
6,COc1cc(S(=O)(=O)c2cccc(OC(F)(F)F)c2)cc2c3c(oc12)CCNC3 [Example 168],0.19
7,[O-][S+](c1ccccc1)c1cc(Cl)c2oc3c(c2c1)CNCC3 (centres unmarked) [Example 232],29
8,O=S(=O)(c1ccc(C2CCO2)cc1)c1cc(Cl)c2oc3c(c2c1)CNCC3 (centres unmarked) [Example 126],10
9,CCOc1cc(S(=O)(=O)c2ccccc2)cc2c3c(oc12)CCNC3 [Example 215],0.11
10,"O=S(=O)(c1ccccc1)c1cc(Cl)c2oc3c(c2c1)CCNCC3 [Example 90, 7-chloro-9-(phenylsulfonyl)-2,3,4,5-tetrahydro-1H-benzofuro[2,3-d]azepine hydrochloride]",0.25
11,O=S(=O)(c1ccccc1)c1cc(N2CCOCC2)c2oc3c(c2c1)CNCC3 [Example 228],47
12,"O=S(=O)(c1ccc(CO)cc1)c1cc(Cl)c2oc3c(c2c1)CNCC3 [Example 72, (4-((6-chloro-1,2,3,4-tetrahydrobenzofuro[3,2-c]pyridin-8-yl)sulfonyl)phenyl)methanol hydrochloride]",12
13,"O=S(=O)(c1cccc(Cl)c1)c1cc(Cl)c2oc3c(c2c1)CNCC3 [Example 46, 6-Chloro-8-(3-chlorophenylsulfonyl)-1,2,3,4-tetrahydrobenzofuro[3,2-c]pyridine hydrochloride]",0.35
14,COCCN1CCc2oc3c(Cl)cc(S(=O)(=O)c4ccccc4)cc3c2C1 [Example 149],1.6
15,Cn1cc(-c2cc(S(=O)(=O)c3ccccc3)cc3c4c(oc23)CCNC4)cn1 [Example 225],11
16,O=S(=O)(c1ccccc1)c1cc(Cl)c2oc3c(c2c1)CN(CCO)CC3 [Example 146],1.6
17,CC(=O)N1CCc2oc3c(Cl)cc(S(=O)(=O)c4ccccc4)cc3c2C1 [Example 239],9.5
18,COc1cc(S(=O)(=O)c2ccc(OC(F)F)cc2)cc2c3c(oc12)CCNC3 [Example 164],0.4
19,O=S(=O)(c1ccccc1)c1cc(OCCO)c2oc3c(c2c1)CNCC3 [Example 217],1.6
20,O=S(=O)(c1ccc2c(c1)COCC2)c1cc(Cl)c2oc3c(c2c1)CNCC3 [Example 105],13
21,O=S(=O)(c1ccc(C(O)C(F)(F)F)cc1)c1cc(Cl)c2oc3c(c2c1)CNCC3 (centres unmarked) [Example 131],7.6
22,CC(C)(O)c1cccc(S(=O)(=O)c2cc(Cl)c3oc4c(c3c2)CNCC4)c1 [Example 107],0.79

row,SMILES,Ki [nM]
1,COc1cc(S(=O)(=O)c2cc(F)cc(F)c2)cc2c3c(oc12)CCNC3 [Example 186],0.33
2,CN(C)C(=O)CN1CCc2oc3c(Cl)cc(S(=O)(=O)c4ccccc4)cc3c2C1 [Example 148],45
3,O=S(=O)(c1cncc(C(F)(F)F)c1)c1cc(Cl)c2oc3c(c2c1)CNCC3 [Example 121],29
4,CC(O)CN1CCc2oc3c(Cl)cc(S(=O)(=O)c4ccccc4)cc3c2C1 (centres unmarked) [Example 151],1.7
5,"O=S(=O)(c1ccccc1)c1cc(Cl)c2oc3c(c2c1)C(CF)NCC3 (centres unmarked) [Example 87, 6-chloro-1-fluoromethyl-8-phenylsulfonyl-1,2,3,4-tetrahydrobenzofuro[3,2-c]pyridine hydrochloride]",4
6,"O=S(=O)(c1ccccc1)c1cc(Cl)c2oc3c(c2c1)CC(O)CC3 (racemic) [Example 97, 6-chloro-8-(phenylsulfonyl)-1,2,3,4-tetrahydrodibenzo[b,d]furan-2-ol]",1.7
7,O=S(=O)(c1cc(F)cc(Cl)c1)c1cc(Cl)c2oc3c(c2c1)CNCC3 [Example 125],2.3
8,C[C@@H](O)c1cccc(S(=O)(=O)c2cc(Cl)c3oc4c(c3c2)CNCC4)c1 [Example 139],2.7
9,Clc1cc(Cc2ccccc2)cc2c3c(oc12)CCNC3 [Example 236],24
10,Cc1cc(S(=O)(=O)c2cc(Cl)cc(Cl)c2)cc2c3c(oc12)CCNC3 [Example 198],1.2
11,COc1cc(S(=O)(=O)c2cccc(Cl)c2)cc2c3c(oc12)CCNC3 [Example 190],0.05
12,COc1cc(S(=O)(=O)c2cccc(C(F)(F)F)c2)cc2c3c(oc12)CCNC3 [Example 167],0.13
13,O=S(=O)(c1cc(Cl)c2oc3c(c2c1)CNCC3)c1csc2ccccc12 [Example 133],0.26
14,Cc1cc(S(=O)(=O)c2cccc(OC(F)F)c2)cc2c3c(oc12)CCNC3 [Example 202],0.3
15,CC(C)(O)c1ccc(S(=O)(=O)c2cc(Cl)c3oc4c(c3c2)CNCC4)cc1 [Example 108],1.3
16,COc1cc(S(=O)(=O)c2cccc(C(C)(C)O)c2)cc2c3c(oc12)CCNC3 [Example 177],0.35
17,O=S(=O)(c1ccc(C2CCOC2)cc1)c1cc(Cl)c2oc3c(c2c1)CNCC3 (centres unmarked) [Example 154],5.6
18,CC(O)c1ccccc1S(=O)(=O)c1cc(Cl)c2oc3c(c2c1)CNCC3 (centres unmarked) [Example 135],20
19,COc1cc(S(=O)(=O)c2cccs2)cc2c3c(oc12)CCNC3 [Example 192],0.17
20,COc1cc(Oc2ccccc2)cc2c3c(oc12)CCNC3 [Example 237],645

# Source: patent US9067949B2, “Benzofuro[3,2-c] pyridines and related analogs as serotonin sub-type 6 (5-HT6) modulators for the treatment of obesity, metabolic syndrome, cognition and schizophrenia” (Albany Molecular Research, Inc., priority 2011, dated 2015)
